Source: article PMC5397059, “Design, synthesis and structure-activity relationship study of wollamide B; a new potential anti TB agent” (PLoS ONE, 2017)
In brackets after ≈: the same amount, converted by molar mass. Several values for one entry are separate records, joined by “and”; a condition that tells them apart may be missing. Identical values can stand only once. Non-standard residues stand in square brackets, D forms with d. Residues, ends and D or L forms follow the SMILES beside them. dPhe(4-Cl) = N[C@H](Cc1ccc(Cl)cc1)C(=O)O; dOrn = NCCC[C@@H](N)C(=O)O

Tests used:
[1] = Chemi-Luminescent Nitrogen Detection (CLND) kinetic solubility assay; format: physicochemical; settings: phosphate buffered saline, pH 7.4; kinetic aqueous solubility by CLND; read-out: Solubility
Experimental: GSK in-house kinetic solubility assay: 5 μL of 10mM DMSO stock solution diluted to 100 uL with pH7.4 phosphate buffered saline, equilibrated for 1 hour at room temperature, filtered through Millipore Multiscreen HTS-PCF filter plates (MSSL BPC).
The filtrate is quantified by suitably calibrated flow injection CLND. The standard error of the CLND solubility determination is ±30 μM, the upper limit of the solubility is 500 μM when working from 10 mM DMSO stock solution.

Chrom logD assay = format: physicochemical; settings: pH 7.4; read-out: Log D
Experimental: The Chromatographic Hydrophobicity Index (CHI) values were measured using a reversed phase HPLC column (50 x 2 mmx 3 μMGemini NX C18, Phenomenex, UK) with fast acetonitrile gradient at starting mobile phase of 100% pH = 7.4 buffer. CHI values are derived directly from the gradient retention times by using a calibration line obtained for standard compounds. The CHI value approximates to the volume % organic concentration when the compound elutes. CHI is linearly transformed into ChromlogD by the formula: ChromlogD=0.0857CHI−2.00
The average error of the assay is ±3 CHI unit or ±0.25 ChromlogD.

[2] = Artificial membrane permeability assay; format: in vitro ADME; settings: PAMPA, pH 7.4; passive artificial membrane permeability; read-out: Permeability
Experimental: A 8% L-a-phosphatidylcholine (EPC) in 1% cholesterol decane solution and a 1.8% EPC in cholesterol decane solution were prepared. The lipid solution was then aliquoted into 4 mL capped vials, sealed with parafilm and stored in-20°Cfreezer. The lipid solution was then transferred from 4 mL vial into 96-well half area plate (130μL/well) for daily assay usage. An additional 50 mM phosphate buffer with 0.5% encapsin, pH at 7.4 was prepared. The assay was run by the Biomek FX and Biomek software. The assay procedure is written under the Biomek software. For one batch assay, it can test two 96-well sample plates with at least one standard on each sample plate. The total assay time was about 4 hours. 3.5 μL of lipid solution were added to the filler plate, shaken for 12 seconds, and 250 μL of buffer were added to donor side and 100 μL to the receiver side. The assay plate was shaken for 45 min before adding the compounds. The test compounds (2.5 μL) were added to the donor side. The assay was run as replicates: Assay plates1 and 2 tested the sample plate 1; assay plates 3 and 4 tested the sample plate 2. The assay plates were then incubated and shaken for 3 hours at room temperature.
The assay samples were transferred to the HPLC analysis plates and 100 μL of receiver solution were aspirated and transferred to the receiver for analysis. Similarly, another 100 μL from the donor solution were transferred to the donor analysis plate.
Compound concentration was measured by HPLC at different time-points and permeability was established as nm/sec.

human serum albumin = human serum albumin (Homo sapiens, UniProt P02768); assay: Human serum albumin (HSA) binding assay; format: in vitro ADME; settings: human serum albumin binding
Experimental: HSA binding assay was performed according to the method described by Valko K, et al. The basic principle of the measurements is the determination of gradient retention times of compounds on immobilized HSA column and converting these retention times to the appropriate property values using calibration. The peaks are detected and identified by UV. Calibration sets of compounds are measured before each run for which the HSA binding values are known. The retention times of the calibration set of compounds are plotted against these known values. The slope and the intercept of the obtained straight lines are used to calculate the HSA binding for the unknown compounds.

[3] = Plasma stability assay, mouse plasma; format: in vitro ADME; settings: CD1, mouse, plasma; 2 hours at 37°C, triplicates; read-out: Plasma stability (% remaining) Mouse
Experimental: (§1) Plasma stability of the compounds was assessed in CD1 mouse and human plasma. Plasma was spiked with 1 μL of a 10 mM of each test compound solution to produce a 1 uM incubation. Three separate 300 μl aliquots were then taken from each tube and incubated at 37°C for 2 h. At each time point (0, 15, 30, 60 and 120 min), 50 μL of plasma were collected from each sample. Samples were extracted by protein precipitation with 250 μL of 0.1% AcOH acetonitrile methanol 3–1 (v/v) containing 1uM internal standard and centrifuged for 10min at 2800rpm. Supernatants were collected prior the injection onto an LC-MS/MS system. Analyte/Internal standard peak area ratios were referenced to the zero time-point samples as 100% in order to determine the percentage of compound remaining for each time-point. Ln plots of the % remaining for each compound were used to determine the half-life for the plasma incubations.

[4] = Plasma stability assay, human plasma; format: in vitro ADME; settings: human, plasma; 2 hours at 37°C, triplicates; read-out: Plasma stability (% remaining) Human
Experimental: as §1

[5] = Intrinsic clearance (CLint) assay, mouse liver microsomes; format: in vitro ADME; settings: for % LBF Mouse: liver blood flow; for CLint Mouse: mouse liver microsomes; for half-life at 0.5 µM: mouse, pooled mouse liver microsomes, pH 7.4, read-out: Microsomal t1/2 Mouse; for CLpred Mouse: predicted metabolic clearance
Experimental: (§2) Pooled mouse and human liver microsomes are purchased from Xenotech. Microsomes (final protein concentration 0.5 mg/mL, MgCl2 (final concentration = 5 mM) and test compound (final substrate concentration = 0.5] M; final DMSO concentration = 0.5%) in 0.1 M phosphate buffer pH 7.4 are pre-incubated at 37°C prior to the addition of NADPH (final concentration = 1 mM) to initiate the reaction. The final incubation volume is 600 μL.
(§3) Control incubation is included for each compound tested where 0.1 M phosphate buffer pH 7.4 is added instead of NADPH (minus NADPH). One control compound is included with each species. All incubations are performed singularly for each test compound. Each compound is incubated for 45 minutes and samples (100 μL) of incubate are taken at 0, 5, 15, 30 and 45 min. The control (minus NADPH) is sampled at 30 min only. The reactions are stopped by the addition of sample to 200 μL Acetonitrile: Methanol 3:1 containing internal standard. The terminated samples are centrifuged at 2,500 rpm for 20 min at 4°C to precipitate the protein. Quantitative analysis: following protein precipitation, the samples were analyzed using specific LC-MS/MS conditions. Data analysis: from a plot of ln peak area ratio (compound peak area/internal standard peak area) against time, the gradient of the line was determined. Subsequently, half-life and intrinsic clearance were calculated using the equations below: Eliminationrateconstant(K)=(−gradient) Halflife(t1/2)(min)=0.693/K Cli(mL/min/gprotien)=V×0.693/t1/2 WhereV=Incubationvolume(mL/gmicrosomalprotien)

[6] = Intrinsic clearance (CLint) assay, human liver microsomes; format: in vitro ADME; settings: for half-life at 0.5 µM: human, pooled human liver microsomes, pH 7.4, human liver microsomes, read-out: Microsomal t1/2 Human; for % LBF Human: liver blood flow; for CLpred Human: predicted metabolic clearance; for % LBF given as a fraction (metabolic stability class): predicted hepatic clearance, microsomal stability
Experimental: as §2, §3

Mtb H37Rv = settings: duplicate; analogues

Sequence of human serum albumin (P02768 25-609): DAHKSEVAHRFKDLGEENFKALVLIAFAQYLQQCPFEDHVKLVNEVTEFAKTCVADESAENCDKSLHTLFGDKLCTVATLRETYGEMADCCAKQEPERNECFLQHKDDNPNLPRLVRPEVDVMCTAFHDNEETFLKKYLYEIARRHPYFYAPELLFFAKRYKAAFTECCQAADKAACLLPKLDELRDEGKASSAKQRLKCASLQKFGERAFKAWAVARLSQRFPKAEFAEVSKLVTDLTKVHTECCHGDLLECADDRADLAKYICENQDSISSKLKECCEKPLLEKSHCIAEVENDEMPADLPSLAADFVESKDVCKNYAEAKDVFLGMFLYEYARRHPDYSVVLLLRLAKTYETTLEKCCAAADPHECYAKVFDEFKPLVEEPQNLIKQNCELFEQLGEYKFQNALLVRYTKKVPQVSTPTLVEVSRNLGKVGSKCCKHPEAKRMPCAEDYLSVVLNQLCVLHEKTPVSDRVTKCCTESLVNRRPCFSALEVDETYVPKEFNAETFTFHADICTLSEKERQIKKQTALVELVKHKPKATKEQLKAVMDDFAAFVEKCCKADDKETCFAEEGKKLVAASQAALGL

| Compound | solubility kinetic at 1 h [1] [µg/mL] | chromatographic logD (Chrom logD assay) | Papp at 3 h [2] [×10⁻⁶ cm/s] | % HSA (human serum albumin) | remaining at 2 h, 1 uM [3] [%] | remaining at 2 h, 1 uM [4] [%] | % LBF Mouse [5] [%] | CLint Mouse [5] [mL/min/g tissue] | half-life at 0.5 µM [5] [h] | CLpred Mouse [5] [mL/min/kg] | CLint Human ([6]; human liver microsomes) [mL/min/g tissue] | half-life at 0.5 µM [6] [h] | % LBF Human [6] [%] | CLpred Human [6] [mL/min/kg] | MIC against Mtb H37Rv (Mtb H37Rv) [µM] | Microsomal t1/2 Human ([6]; human liver microsomes) [h] | % LBF given as a fraction (metabolic stability class) [6] |
| --- | --- | --- | --- | --- | --- | --- | --- | --- | --- | --- | --- | --- | --- | --- | --- | --- | --- |
| CC(C)C[C@@H]1NC(=O)[C@@H](Cc2ccc(Cl)cc2)NC(=O)[C@@H](CCCN)NC(=O)[C@H](CC(N)=O)NC(=O)[C@H](C(C)C)NC(=O)[C@@H](CC(C)C)NC1=O [Compound 14c] (cyclo(L[dL]VN[dOrn][dPhe(4-Cl)])) | ≥ 218 | 1.9 | < 1 | 70.25% | 70 | 104 | <16.27 | <0.48 | > 2.31 | <20.50 | <0.40 | > 2.31 | <35.08 | 6.31 | 40 (≈ 29.4 µg/mL) | – | – |
| CC(C)C[C@@H]1NC(=O)[C@H](Cc2c[nH]c3ccccc23)NC(=O)[C@@H](CCCN)NC(=O)[C@H](CC(N)=O)NC(=O)[C@H](C(C)C)NC(=O)[C@@H](C)NC1=O [Compound 6c] (cyclo(L[dA]VN[dOrn]W)) | ≥ 196 | 1.04 | < 1 | 42.21% | 102 | 95 | <16.27 | <0.48 | > 2.31 | <20.50 | 0.73 | 1.25 | 49.94 | 8.99 | >80 | – | – |
| CC(C)C[C@H]1NC(=O)[C@H](C)NC(=O)[C@H](Cc2c[nH]c3ccccc23)NC(=O)[C@@H](CCCN)NC(=O)[C@H](CC(N)=O)NC(=O)[C@H](C(C)C)NC1=O [Compound 2c] (cyclo(A[dL]VN[dOrn]W)) | > 134 | 0.94 | < 1 | 43.14% | 93 | 107 | <16.27 | <0.48 | > 2.31 | <20.50 | <0.40 | > 2.31 | <35.08 | – | >80 | – | – |
| CC(C)C[C@@H]1NC(=O)[C@H](Cc2c[nH]c3ccccc23)NC(=O)[C@@H](CCCN)NC(=O)[C@H](CC(N)=O)NC(=O)[C@H](C(C)C)NC(=O)[C@@H](Cc2ccc(Cl)cc2)NC1=O [Compound 16c] (cyclo(L[dPhe(4-Cl)]VN[dOrn]W)) | ≥ 192 | 1.92 | < 0.3 | 92% and 92.54% | 98 | 99 | 19.21 | 0.59 | 1.89 | 24.21 | 2.43 | < 0.5 | 76.78 | 13.82 | – | 0.3773 | > ¾ |
| CC(C)C[C@@H]1NC(=O)[C@H](Cc2c[nH]c3ccccc23)NC(=O)[C@@H](CCCN)NC(=O)[C@@H](CCCN)NC(=O)[C@H](C(C)C)NC(=O)[C@@H](CC(C)C)NC1=O [Compound 9c] (cyclo(L[dL]V[dOrn][dOrn]W)) | 39 (≈ 52.7 µM) | 1.32 | 1 | 86.46% | 100 | 100 | 18.68 | 0.57 | 1.95 | 23.53 | 0.45 | 2.03 | 38.08 | 6.85 | – | – | < 1/3 |
| CC(C)C[C@@H]1NC(=O)[C@H](C)NC(=O)[C@@H](CCCN)NC(=O)[C@H](CC(N)=O)NC(=O)[C@H](C(C)C)NC(=O)[C@@H](CC(C)C)NC1=O [Compound 3c] (cyclo(AL[dL]VN[dOrn])) | 136 (≈ 218 µM) | – | – | 26% and 25.51% | 92 | 86 | <16.27 | <0.48 | > 2.31 | <20.50 | <0.40 | > 2.31 | <35.08 | 6.31 | >80 | – | – |
| CC[C@H](C)[C@@H]1NC(=O)[C@@H](CC(C)C)NC(=O)[C@H](CC(C)C)NC(=O)[C@H](Cc2c[nH]c3ccccc23)NC(=O)[C@@H](CCCN)NC(=O)[C@H](CC(N)=O)NC1=O [Compound 7c] (cyclo(IN[dOrn]WL[dL])) | ≥ 177 | 1.83 | < 1 | 76.35% | 98 | 99 | <16.27 | <0.48 | > 2.31 | <20.50 | 1.70 | 0.54 | 69.81 | 12.57 | – | – | – |
